Experimental data taken from patent publication US20250099420A1, “SMALL MOLECULE MODULATORS OF GPR139 COMPLEX” (University of Florida Research Foundation, Incorporated, priority 2022, published 2025).
Read-outs that look alike come from different tables or passages of the source.

Tests used:
[1] = system: parental HEK cells; assay: HEK parental Agonist Counterscreen Assay (non-transfected cells); assay type: cell-based; settings: for Averaged Max % Response (±St. Dev.): activity relative to known control
Description: The high control for the agonist counterscreen was Forskolin not acetylcholine.

[2] = biological target: T1, GPR139 (Homo sapiens, UniProt Q6DWJ6); assay: GPR139 Agonist titration / agonist counterscreen assay (calcium detection, HEK-GPR139 cells); assay type: cell-based; design: expressed in transfected cells; host or cells: HEK Aequorin cells, Maxcyte transient transfection; settings: GPR139 Agonist Activity; for Averaged Max % Response (±St. Dev.): activity relative to known control; for EC50: read-out: EC50
T1 sequence (Q6DWJ6 1-353): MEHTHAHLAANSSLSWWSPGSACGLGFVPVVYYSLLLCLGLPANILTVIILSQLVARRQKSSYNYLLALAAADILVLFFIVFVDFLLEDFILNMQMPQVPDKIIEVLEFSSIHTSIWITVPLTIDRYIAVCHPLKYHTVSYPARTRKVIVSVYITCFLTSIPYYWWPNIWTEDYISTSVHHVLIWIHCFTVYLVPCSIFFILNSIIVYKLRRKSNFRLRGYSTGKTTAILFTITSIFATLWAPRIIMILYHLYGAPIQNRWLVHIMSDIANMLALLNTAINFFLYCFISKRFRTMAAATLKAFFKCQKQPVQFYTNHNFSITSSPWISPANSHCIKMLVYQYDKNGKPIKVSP
Experimental: GPR activity was assessed using a calcium detection assay. […] Negative control samples were treated with DMSO. […] Intracellular calcium was measured using Calcium 5.

[3] = values printed in E-notation without unit
[4] = Homo sapiens, HEK293, HEK Agonist Activity section of Table 4 (parental HEK counterscreen)
[5] = HEK Agonist Activity section of Table 4 (parental HEK counterscreen)

CC(C)CCNC(=O)C1C2C=CC3(CN(Cc4ccccc4Cl)C(=O)C13)O2 (stereo not drawn) [SR-01000104567]
Lipophilic Efficiency (logD) ([1]; HEK Agonist Activity): 2.34
Lipophilic Efficiency (logP) ([1]; HEK Agonist Activity): 2.34
Averaged Max % Response (±St. Dev.) ([1]; HEK Agonist Activity): 8.02 ± 5.87%
EC50 ([1]; HEK Agonist Activity, parental non-transfected HEK cells): > 14100 nM
Averaged Max % Response (±St. Dev.) [2]: 119.91 ± 2.22%
Lipophilic Efficiency (logD) ([2]; based on logD): 5.19
Lipophilic Efficiency (logP) ([2]; based on logP): 5.19
Hill Slope ([2]; fitted dose-response curve): 0.32
Efficiency Ligand ([2]; ligand efficiency): 0.40
EC50 [2, 3]: 19.8 nM

CC(NC(=O)CN1CCN(Cc2ccc(Cl)cc2)C1=O)c1ccccc1 (stereo not drawn) [SR-01000105214]
Lipophilic Efficiency (logD) ([1]; HEK Agonist Activity section): 2.13
Lipophilic Efficiency (logP) ([1]; HEK Agonist Activity section): 2.13
Averaged Max % Response (±St. Dev.) ([1]; HEK Agonist Activity section): −5.28 ± 2.10%
EC50 [1, 4]: > 14100 nM
Averaged Max % Response (±St. Dev.) [2]: 114.03 ± 9.34%
Lipophilic Efficiency (logD) ([2]; based on logD): 3.89
Lipophilic Efficiency (logP) ([2]; based on logP): 3.89
Hill Slope ([2]; fitted dose-response curve): 0.51
Efficiency Ligand ([2]; ligand efficiency): 0.36
EC50 [2, 3]: 245 nM

CSc1ccc(CCNC(=O)Cn2ncc3c(=O)oc4ccccc4c32)cc1 [SR-01000105999]
Lipophilic Efficiency (logD) ([1]; HEK Agonist Activity section): 2.04
Lipophilic Efficiency (logP) ([1]; HEK Agonist Activity section): 2.04
Averaged Max % Response (±St. Dev.) ([1]; HEK Agonist Activity section): 4.15 ± 6.01%
EC50 [1, 4]: > 14100 nM
Efficiency Ligand [2]: 0.32
Hill Slope [2]: 1.37
Lipophilic Efficiency (logD) [2]: 3.64
Lipophilic Efficiency (logP) [2]: 3.64
EC50 ([2]; HEK-GPR139 cells): 355 nM
Averaged Max % Response (±St. Dev.) [2]: 100.11 ± 8.55%

Cc1ccc2c(c1)-c1c(cnn1CC(=O)Nc1ncccc1C)CO2 [SR-01000106321]
Lipophilic Efficiency (logD) ([1]; HEK Agonist Activity section): 1.97
Lipophilic Efficiency (logP) ([1]; HEK Agonist Activity section): 1.97
EC50 [1, 5]: > 14100 nM
Averaged Max % Response (±St. Dev.) ([1]; HEK Agonist Activity section): 6.49 ± 5.13%
Efficiency Ligand [2]: 0.34
Hill Slope [2]: 1.43
Lipophilic Efficiency (logD) [2]: 3.26
Lipophilic Efficiency (logP) [2]: 3.26
EC50 ([2]; HEK-GPR139 cells): 732 nM
Averaged Max % Response (±St. Dev.) [2]: 96.96 ± 1.13%

CCOC(=O)C1C2C=CC3(CN(C(C)c4ccc(Br)cc4)C(=O)C13)O2 (stereo not drawn) [SR-01000114492]
Lipophilic Efficiency (logD) ([1]; HEK Agonist Activity section): 2.28
Lipophilic Efficiency (logP) ([1]; HEK Agonist Activity section): 2.28
EC50 [1, 5]: > 14100 nM
Averaged Max % Response (±St. Dev.) ([1]; HEK Agonist Activity section): −1.32 ± 3.21%
Efficiency Ligand [2]: 0.34
Hill Slope [2]: 0.90
Lipophilic Efficiency (logD) [2]: 3.50
Lipophilic Efficiency (logP) [2]: 3.50
EC50 ([2]; HEK-GPR139 cells): 853 nM
Averaged Max % Response (±St. Dev.) [2]: 84.13 ± 7.28%

COc1ccc(C(C)N2CC34C=CC(O3)C(C(=O)OCC(C)C)C4C2=O)cc1 (stereo not drawn) [SR-01000114500]
Lipophilic Efficiency (logD) ([1]; HEK Agonist Activity section): 2.32
Lipophilic Efficiency (logP) ([1]; HEK Agonist Activity section): 2.32
EC50 [1, 5]: > 14100 nM
Averaged Max % Response (±St. Dev.) ([1]; HEK Agonist Activity section): 4.75 ± 6.36%
Averaged Max % Response (±St. Dev.) [2]: 93.61 ± 11.95%
Lipophilic Efficiency (logD) ([2]; based on logD): 4.21
Lipophilic Efficiency (logP) ([2]; based on logP): 4.21
Hill Slope ([2]; fitted dose-response curve): 1.06
Efficiency Ligand ([2]; ligand efficiency): 0.34
EC50 [2, 3]: 184 nM

O=C(CCS(=O)(=O)c1cccc2nonc12)NCCc1ccc(Cl)cc1 [SR-01000119565]
Lipophilic Efficiency (logD) ([1]; HEK Agonist Activity section): 2.79
Lipophilic Efficiency (logP) ([1]; HEK Agonist Activity section): 2.79
EC50 [1, 5]: > 14100 nM
Averaged Max % Response (±St. Dev.) ([1]; HEK Agonist Activity section): 5.54 ± 5.16%
Efficiency Ligand [2]: 0.30
Hill Slope [2]: 1.07
Lipophilic Efficiency (logD) [2]: 3.46
Lipophilic Efficiency (logP) [2]: 3.46
EC50 ([2]; HEK-GPR139 cells): 3000 nM
Averaged Max % Response (±St. Dev.) [2]: 68.12 ± 14.87%

O=C(NCCn1ccc2ccccc21)c1cccs1 [SR-01000124129]
Lipophilic Efficiency (logD) ([1]; HEK Agonist Activity section): 1.77
Lipophilic Efficiency (logP) ([1]; HEK Agonist Activity section): 1.77
Averaged Max % Response (±St. Dev.) ([1]; HEK Agonist Activity section): −9.08 ± 5.27%
EC50 [1, 4]: > 14100 nM
Averaged Max % Response (±St. Dev.) [2]: 84.79 ± 6.25%
Lipophilic Efficiency (logD) ([2]; based on logD): 3.83
Lipophilic Efficiency (logP) ([2]; based on logP): 3.83
Hill Slope ([2]; fitted dose-response curve): 0.88
Efficiency Ligand ([2]; ligand efficiency): 0.51
EC50 [2, 3]: 123 nM

O=C(NCCn1ccc2ccccc21)c1cccc(Cl)c1 [SR-01000124131]
Lipophilic Efficiency (logD) ([1]; HEK Agonist Activity section): 1.08
Lipophilic Efficiency (logP) ([1]; HEK Agonist Activity section): 1.08
Averaged Max % Response (±St. Dev.) ([1]; HEK Agonist Activity section): −0.13 ± 10.83%
EC50 [1, 4]: > 14100 nM
Efficiency Ligand [2]: 0.42
Hill Slope [2]: 0.85
Lipophilic Efficiency (logD) [2]: 2.55
Lipophilic Efficiency (logP) [2]: 2.55
EC50 ([2]; HEK-GPR139 cells): 472 nM
Averaged Max % Response (±St. Dev.) [2]: 93.55 ± 12.47%
